PubChem BioAssay AID182 (DTP/NCI, 2004)
Several values for one entry are separate records, joined by “and”; a condition that tells them apart may be missing. Equal values may be shown once. Inconclusive results and toxic doses are left out. Starred links: 1 amine or outer side, 2 acyl side, 3 side chain; linkers in the order of their positions; H or OH if unused. Positions of bridges follow the written chain, without caps; N, C: chain ends. Non-standard residues stand in square brackets, D forms with d. Residues, ends and D or L forms follow the SMILES beside them. Chains are numbered I, II in the order given. Actinocin(9to1) = Cc1c2oc3c(C)ccc(C(=O)[*:1])c3nc-2c(C(=O)[*:2])c(N)c1=O; aThr = C[C@H](O)[C@H](N)C(=O)O; NMeV = CN[C@H](C(=O)O)C(C)C; Sar = CNCC(=O)O

System: BDF1 mice, P388/ADR leukemia ip, median survival T/C
Test: NCI In Vivo Anticancer Drug Screen. Data for tumor model P388 Leukemia resistant to Adriamycin; NSC 123127, Developed at Scr 06 and 41 (intraperitoneal) in B6D2F1 (BDF1) mice
Conditions: endpoint: median survival time, higher = longer survival
Experimental: The antitumor activity of compounds was measured in mice bearing transplantable tumors. Survival or tumor size were measured and the results are expressed as the measurement made in the treated group (T) divided by the measurement made in the vehicle treated control group (C). The tumor model used in this assay is P388 Leukemia resistant to Adriamycin; NSC 123127, Developed at Scr 06 and 41 (intraperitoneal) in B6D2F1 (BDF1) mice

[1] = dose: 36.0 mg/kg/injection, schedule: Q04DX003 (ip), vehicle: saline
[2] = dose: 2.88 mg/kg/injection, schedule: Q04DX003 (ip), vehicle: water
[3] = dose: 10.8 mg/kg/injection, schedule: Q04DX003 (ip), vehicle: saline
[4] = dose: 18.0 mg/kg/injection, schedule: Q04DX003 (ip), vehicle: saline
[5] = dose: 30.0 mg/kg/injection, schedule: Q04DX003 (ip), vehicle: saline

## CO[C@H]1Nc2c(ccc(C)c2O)C(=O)N2C=C(/C=C/C(N)=O)C[C@@H]12
dose: 216.0 micrograms/kg/injection, schedule: Q04DX003 (ip), vehicle: saline + alcohol
  T/C: 154 % of control
dose: 252.0 micrograms/kg/injection, schedule: Q04DX003 (ip), vehicle: saline + alcohol
  T/C: 194 % of control
dose: 360.0 micrograms/kg/injection, schedule: Q04DX003 (ip), vehicle: saline + alcohol
  T/C: 176 % of control
dose: 420.0 micrograms/kg/injection, schedule: Q04DX003 (ip), vehicle: saline + alcohol
  T/C: 176 % of control
dose: 600.0 micrograms/kg/injection, schedule: Q04DX003 (ip), vehicle: saline + alcohol
  T/C: 90 % of control

## COc1cc([C@@H]2c3cc4c(cc3[C@@H](OC3OC5CO[C@@H](c6cccs6)OC5C(O)C3O)[C@H]3COC(=O)[C@H]23)OCO4)cc(OC)c1O (stereo partly drawn)
dose: 13.33 mg/kg/injection, schedule: Q04DX003 (ip), vehicle: saline
  T/C: 123 % of control

## CC[C@H]1CN2CCc3cc(OC)c(OC)cc3[C@@H]2C[C@@H]1C[C@@H]1c2cc(OC)c(OC)cc2CCN1CCN(CCCl)CCCl
dose: 4.3 mg/kg/injection, schedule: Q04DX003 (ip), vehicle: saline with Tween-80
  T/C: 119 % of control
dose: 7.2 mg/kg/injection, schedule: Q04DX003 (ip), vehicle: saline with Tween-80
  T/C: 119 % of control

## CC[C@]1(O)C[C@H]2CN(CCc3c([nH]c4ccccc34)[C@@](C(=O)OC)(c3cc4c(cc3OC)N(C=O)[C@H]3[C@@](O)(C(=O)OC)[C@H](OC(C)=O)[C@]5(CC)C=CCN6CC[C@]43[C@@H]65)C2)C1
dose: 0.5 mg/kg/injection, schedule: Q04DX003 (ip), vehicle: saline
  T/C: 92 % of control
dose: 0.65 mg/kg/injection, schedule: Q04DX003 (ip), vehicle: saline
  T/C: 111 % of control
dose: 1.0 mg/kg/injection, schedule: Q04DX003 (ip), vehicle: saline
  T/C: 92 % of control
dose: 1.8 mg/kg/injection, schedule: Q04DX003 (ip), vehicle: saline
  T/C: 95 % of control
dose: 3.0 mg/kg/injection, schedule: Q04DX003 (ip), vehicle: saline
  T/C: 87 % of control
dose: 389.0 micrograms/kg/injection, schedule: Q04DX003 (ip), vehicle: saline
  T/C: 109 % of control
dose: 432.0 micrograms/kg/injection, schedule: Q04DX003 (ip), vehicle: saline
  T/C: 113 % of control
dose: 648.0 micrograms/kg/injection, schedule: Q04DX003 (ip), vehicle: saline
  T/C: 112 % of control
dose: 720.0 micrograms/kg/injection, schedule: Q04DX003 (ip), vehicle: saline
  T/C: 107 % of control
dose: 1080.0 micrograms/kg/injection, schedule: Q04DX003 (ip), vehicle: saline
  T/C: 110 % of control
dose: 1200.0 micrograms/kg/injection, schedule: Q04DX003 (ip), vehicle: saline
  T/C: 101 % of control
dose: 1800.0 micrograms/kg/injection, schedule: Q04DX003 (ip), vehicle: saline
  T/C: 107 % of control

## O=c1[nH]cc(F)c(=O)[nH]1
dose: 21.6 mg/kg/injection, schedule: Q04DX003 (ip), vehicle: saline
  T/C: 150 % of control
[1]
  T/C: 174 % of control
dose: 60.0 mg/kg/injection, schedule: Q04DX003 (ip), vehicle: saline
  T/C: 192 % of control

## S=c1nc[nH]c2nc[nH]c12
dose: 43.2 mg/kg/injection, schedule: Q01DX009 (ip), vehicle: alkali diluted with saline
  T/C: 100 % of control
dose: 72.0 mg/kg/injection, schedule: Q01DX009 (ip), vehicle: alkali diluted with saline
  T/C: 105 % of control

## CCC1(O)CC(OC2CC(N(C)C)C(OC3CC(O)C(OC4CCC(=O)C(C)O4)C(C)O3)C(C)O2)c2c(cc3c(c2O)C(=O)c2c(O)ccc(O)c2C3=O)C1C(=O)OC (stereo not drawn)
dose: 1.73 mg/kg/injection, schedule: Q04DX003 (ip), vehicle: water
  T/C: 105 % of control
[2]
  T/C: 107 % of control
dose: 4.8 mg/kg/injection, schedule: Q04DX003 (ip), vehicle: water
  T/C: 119 % of control

## N[C@H](C(=O)O)[C@@H]1CC(Cl)=NO1
[1]
  T/C: 122 % of control

## CCCCCCCC(=O)OCC(=O)[C@]1(O)Cc2c(O)c3c(c(O)c2[C@@H](OC2CC(N)C(O)C(C)O2)C1)C(=O)c1c(OC)cccc1C3=O (stereo partly drawn)
[2]
  T/C: 121 % of control

## COC(=O)[C@@H]1c2cc3c(c(O)c2[C@@H](OC2OC(C)C(OC)C(C)(OC)C2OC)C[C@]1(C)O)C(=O)c1c(O)cc2c(c1C3=O)O[C@H]1O[C@]2(C)[C@H](O)[C@@H](N(C)C)[C@@H]1O (stereo partly drawn)
dose: 0.65 mg/kg/injection, schedule: Q04DX003 (ip), vehicle: water
  T/C: 89 % of control
dose: 1.08 mg/kg/injection, schedule: Q04DX003 (ip), vehicle: water
  T/C: 96 % of control
dose: 1.3 mg/kg/injection, schedule: Q04DX003 (ip), vehicle: water
  T/C: 103 % of control
dose: 1.8 mg/kg/injection, schedule: Q04DX003 (ip), vehicle: water
  T/C: 96 % of control
dose: 2.16 mg/kg/injection, schedule: Q04DX003 (ip), vehicle: water
  T/C: 91 % of control

## CCC1=C(C[C@H]2NCCc3cc(OC)c(OC)cc32)C[C@H]2c3cc(OC)c(OC)cc3CCN2C1
[3]
  T/C: 108 % of control
[4]
  T/C: 96 % of control
[5]
  T/C: 107 % of control

## Cc1c2oc3c(C)ccc(C(=O)N[C@@H]4C(=O)N[C@H](C(C)C)C(=O)N5CCC[C@H]5C(=O)N(C)CC(=O)N(C)[C@@H](C(C)C)C(=O)O[C@H]4C)c3nc-2c(C(=O)N[C@@H]2C(=O)N[C@H](C(C)C)C(=O)N3CCC[C@H]3C(=O)N(C)CC(=O)N(C)[C@@H](C(C)C)C(=O)O[C@H]2C)c(N)c1=O (I: [aThr][dV]P[Sar][NMeV] / II: [aThr][dV]P[Sar][NMeV]; ester I:1-I:C, II:1-II:C; linker I:N-II:N via Actinocin(9to1))
dose: 0.3 mg/kg/injection, schedule: Q04DX003 (ip), vehicle: saline
  T/C: 173 % of control
dose: 108.0 micrograms/kg/injection, schedule: Q04DX003 (ip), vehicle: saline + alcohol
  T/C: 111 % of control and 201 % of control
dose: 180.0 micrograms/kg/injection, schedule: Q04DX003 (ip), vehicle: saline + alcohol
  T/C: 118 % of control
dose: 300.0 micrograms/kg/injection, schedule: Q04DX003 (ip), vehicle: saline + alcohol
  T/C: 116 % of control and 117 % of control
dose: 500.0 micrograms/kg/injection, schedule: Q04DX003 (ip), vehicle: saline + alcohol
  T/C: 88 % of control

## COc1cc(NS(C)(=O)=O)ccc1Nc1c2ccccc2nc2ccccc12
dose: 3.6 mg/kg/injection, schedule: Q04DX003 (ip), vehicle: other
  T/C: 123 % of control
dose: 5.4 mg/kg/injection, schedule: Q04DX003 (ip), vehicle: clinical formulation
  T/C: 106 % of control
dose: 9.0 mg/kg/injection, schedule: Q04DX003 (ip), vehicle: clinical formulation
  T/C: 114 % of control

## Nc1ncn(C2OC(CO)C(O)C2O)c(=O)n1 (stereo not drawn)
dose: 6.48 mg/kg/injection, schedule: Q04DX003 (ip), vehicle: saline
  T/C: 210 % of control
[3]
  T/C: 191 % of control
[4]
  T/C: 184 % of control
[5]
  T/C: 87 % of control

## O=C1c2ccccc2C(=O)c2c(NCCNCCO)ccc(NCCNCCO)c21
dose: 13.0 mg/kg/injection, schedule: Q04DX003 (ip), vehicle: saline + alcohol
  T/C: 105 % of control
dose: 21.6 mg/kg/injection, schedule: Q04DX003 (ip), vehicle: saline + alcohol
  T/C: 104 % of control
dose: 36.0 mg/kg/injection, schedule: Q04DX003 (ip), vehicle: saline + alcohol
  T/C: 98 % of control

## CC1OC(OC2CC(O)(C(=O)CO)Cc3c(O)c4c(c(O)c32)C(=O)c2ccccc2C4=O)CC(N)C1O (stereo not drawn)
dose: 216.0 micrograms/kg/injection, schedule: Q04DX003 (ip), vehicle: water
  T/C: 100 % of control
dose: 360.0 micrograms/kg/injection, schedule: Q04DX003 (ip), vehicle: water
  T/C: 102 % of control
dose: 600.0 micrograms/kg/injection, schedule: Q04DX003 (ip), vehicle: water
  T/C: 101 % of control
dose: 1000.0 micrograms/kg/injection, schedule: Q04DX003 (ip), vehicle: water
  T/C: 99 % of control

## COc1cccc2c1C(=O)c1c(O)c3c(c(O)c1C2=O)C[C@@](O)(C(=O)CO)C[C@@H]3OC1CC([N+](C)(C)C)C(O)C(C)O1 (stereo partly drawn)
dose: 8.64 mg/kg/injection, schedule: Q04DX003 (ip), vehicle: water
  T/C: 99 % of control
dose: 14.4 mg/kg/injection, schedule: Q04DX003 (ip), vehicle: water
  T/C: 99 % of control

## NC(CSC(c1ccccc1)(c1ccccc1)c1ccccc1)C(=O)O (stereo not drawn)
dose: 24.0 mg/kg/injection, schedule: Q01DX009 (ip), vehicle: other
  T/C: 100 % of control
dose: 40.0 mg/kg/injection, schedule: Q01DX009 (ip), vehicle: other
  T/C: 106 % of control

## O=C[C@@H](CO)O[C@H](C=O)n1cnc2c(=O)[nH]cnc21
dose: 180.0 mg/kg/injection, schedule: Q04DX003 (ip), vehicle: water
  T/C: 162 % of control
dose: 300.0 mg/kg/injection, schedule: Q04DX003 (ip), vehicle: water
  T/C: 203 % of control
